Laboratory results taken from US9561228B2 (Celgene Avilomics Research, Inc., priority 2013, dated 2017).

Key:
MEK1 activated ERK1 = target: T1, MEK1 activated ERK1 (Homo sapiens, UniProt P27361); experiment: Omnia continuous-read kinase assay for potency against MEK1 activated ERK1; assay type: biochemical; conditions: MEK1 activated ERK1, ATP at KM; read-out: ERK1 Omnia WT ATP KM IC50
T1 construct: purchased Millipore (Billerica, Mass.) 14-439-K
Excerpt: Omnia Assay Protocol for Potency Assessment Against MEK1 Activated ERK1:
The protocol below describes continuous-read kinase assays to measure potency of compounds against activated ERK1 enzyme. The mechanics of the assay platform are best described by the vendor (Invitrogen, Carlsbad, Calif.) on their website at the following URL: invitrogen.com/site/us/en/home.html.
Briefly, a 1.25× stock of ERK1 enzyme (14-439-K) from Millipore (Billerica, Mass.), 5×ATP (AS001A) and ST17-Sox conjugated peptide substrate (KNZ1171C) were prepared in 1× kinase reaction buffer consisting of 20 mM Tris, pH 7.5, 5 mM MgCl2, 1 mM EGTA, 5 mM β-glycerophosphate, 5% glycerol (10× stock, KB002A) and 0.2 mM DTT. 10 μL of ATP/ST17-sox peptide substrate mix was combined with 0.5 μL volume of 100% DMSO and serially diluted compounds were prepared in 100% DMSO in a Corning (#3574) 384-well, white, non-binding surface microtiter plate (Corning, N.Y.). Kinase reactions were started with the addition of 40 μL of ERK1 solution and monitored every 71 seconds for 30-240 minutes at λex360/λem485 in a Synergy plate reader from BioTek (Winooski, Vt.). At the conclusion of each assay, progress curves from each well were examined for linear reaction kinetics and fit statistics (R^2, 95% confidence interval, absolute sum of squares). Initial velocity (0 minutes to ˜30+ minutes) from each reaction was determined from the slope of a plot of relative fluorescence units vs time (minutes or seconds) and then plotted against inhibitor concentration to estimate ^AppIC50 from log [Inhibitor] vs Response, Variable Slope model in GraphPad Prism from GraphPad Software (San Diego, Calif.).
[Reagent] used in optimized protocol:
[ERK1]=4 nM, [ATP]=50 μM, [ST17-Sox]=10 μM (ATP ^appKM 48 μM)
The results of this assay show the degree of inhibition of ERK activity, which is a direct measurement of inhibition of ERK activity. Results from this assay are reported in Table A under the column “ERK1 Omnia WT ATP KM IC50 (nM).”

[1] = tested on: ERK1/2 phosphorylation of p90RSK in HT29 cells; experiment: pRSK MSD Assay in HT29 cells; assay type: cell-based; conditions: Homo sapiens, HT-29, read-out: ERK1/ERK2 PRSK MSD HT29 EC50
Description: The protocol below describes an assay to measure the kinase activity of ERK1/2 to phosphorylate a substrate, p90RSK, in the presence or absence of a test compound. This experiment was conducted using a Mesoscale Discovery plate. The day before the assay, HT29 cells were split and plated at 50,000 cells/well in complete growth media. After allowing cells to adhere, the media was removed and replaced with media containing 0.1% FBS and incubated overnight. Blank MSD plates (Mesoscale Discovery, Cat # L15XA3) were coated with 25 μl/well RSK capture antibody (BD Biosciences, Cat. #610226) and incubated at 4° C. overnight, then blocked with 150 μl of 3% BSA solution. The next day, the media from the cell culture plate was removed and replaced with 100 μl of media containing a test compound and incubated for 120 minutes at 37° C. The media was removed and replaced with 55 μl per well of lysis buffer with protease inhibitors (Roche Biosciences, Cat. #11836170001) and phosphatase inhibitors (Sigma-Aldrich, Cat. # P-0044 and P-5726), followed by incubation at 4° C. for 30 minutes. 50 μl of lysate was transferred to a blocked MSD plate, followed by incubation at room temperature for 2 hours under constant shaking. The plate was washed 3 times with MSD wash buffer (Mesoscale Discovery, Cat. # R617TX), and 25 μl/well phospho-RSK (pRSK) detection antibody (Cell Signaling Technology, Cat. #9335) was added with Sulfo-tagged detection antibody (Mesoscale Discovery, Cat. # R32AB-1) diluted in 1% BSA in MSD wash buffer. This mixture was incubated for 1 hour at room temperature under constant shaking. The plate was washed 3 times, and 150 μl 1×MSD read buffer was added, followed by signal detection in an MSD plate reader.

T1 sequence (P27361 whole entry): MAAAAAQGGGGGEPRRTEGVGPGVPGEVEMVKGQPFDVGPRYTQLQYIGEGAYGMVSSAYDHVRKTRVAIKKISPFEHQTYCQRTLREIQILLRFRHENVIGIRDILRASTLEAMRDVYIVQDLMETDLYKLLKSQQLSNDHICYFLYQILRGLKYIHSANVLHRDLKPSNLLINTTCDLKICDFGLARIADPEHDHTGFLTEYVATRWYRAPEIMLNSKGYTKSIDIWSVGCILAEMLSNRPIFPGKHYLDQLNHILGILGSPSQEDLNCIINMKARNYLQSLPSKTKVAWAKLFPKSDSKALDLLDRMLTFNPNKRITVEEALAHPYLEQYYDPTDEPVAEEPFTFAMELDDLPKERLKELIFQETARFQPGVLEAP

C=CC(=O)Nc1ccccc1Nc1nc(Nc2cc(C(N)=O)ccn2)ncc1C(F)(F)F [Compound I-83, 2-((4-((2-Acrylamidophenyl)amino)-5-(trifluoromethyl)pyrimidin-2-yl)amino)isonicotinamide] was tested, and the IC50 (MEK1 activated ERK1) was 101 to 500 nM and the EC50 [1] was 101 to 500 nM.
For C=CC(=O)Nc1ccccc1Nc1nc(NC(C)(C)C)ncc1C(F)(F)F [Compound I-82, N-(2-((2-(tert-Butylamino)-5-(trifluoromethyl)pyrimidin-4-yl)amino)phenyl)acrylamide], the IC50 (MEK1 activated ERK1) was 501 to 999 nM and the EC50 [1] was > 1000 nM.
C=C(C)S(=O)(=O)Nc1cc(F)ccc1Nc1nc(Nc2cc(C(C)=O)ccc2C)ncc1C(F)(F)F [Compound I-99, N-(2-((2-((5-acetyl-2-methylphenyl)amino)-5-(trifluoromethyl)pyrimidin-4-yl)amino)-5-fluorophenyl)prop-1-ene-2-sulfonamide] was tested, and the IC50 (MEK1 activated ERK1) was 501 to 999 nM and the EC50 [1] was > 1000 nM.
C=CC(=O)Nc1ccccc1Nc1nc(Nc2cc(C(=O)NOC)ccc2OC)ncc1C(F)(F)F [Compound I-67, 3-((4-((2-Acrylamidophenyl)amino)-5-(trifluoromethyl)pyrimidin-2-yl)amino)-N,4-dimethoxybenzamide] showed an IC50 (MEK1 activated ERK1) of 101 to 500 nM and an EC50 [1] of 501 to 999 nM.
Work on C=CC(=O)Nc1ccc(C)cc1Nc1nc(NC2CCC(=O)CC2)ncc1C(F)(F)F [Compound I-39, N-(4-Methyl-2-((2-((4-oxocyclohexyl)amino)-5-(trifluoromethyl)pyrimidin-4-yl)amino)phenyl)acrylamide] yielded an IC50 (MEK1 activated ERK1) of 101 to 500 nM and an EC50 [1] of 501 to 999 nM.
C=CC(=O)Nc1cc(C)ccc1Nc1nc(Nc2ccnc(Cl)c2)ncc1Cl [Compound I-230, N-(2-((5-chloro-2-((2-chloropyridin-4-yl)amino)pyrimidin-4-yl)amino)-5-methylphenyl)acrylamide] showed an IC50 (MEK1 activated ERK1) of 501 to 999 nM and an EC50 [1] of 101 to 500 nM.
C=CC(=O)Nc1ccccc1Nc1nc(NC2CCCCC2)ncc1Cl [Compound I-107, N-(2-((5-chloro-2-(cyclohexylamino)pyrimidin-4-yl)amino)phenyl)acrylamide] showed an IC50 (MEK1 activated ERK1) of 101 to 500 nM and an EC50 [1] of 101 to 500 nM.
C=CC(=O)Nc1ccccc1Nc1nc(Nc2ccc(N3CCNCC3)cc2OC(F)F)ncc1Cl [Compound I-142, N-(2-((5-chloro-2-((2-(difluoromethoxy)-4-(piperazin-1-yl)phenyl)amino)pyrimidin-4-yl)amino)phenyl)acrylamide] was tested, and the IC50 (MEK1 activated ERK1) was 101 to 500 nM.
With C=CC(=O)Nc1ccccc1Nc1nc(N[C@H]2CC[C@H](O)CC2)ncc1C(F)(F)F [Compound I-1, Trans-N-(2-((2-((4-hydroxycyclohexyl)amino)-5-(trifluoromethyl)pyrimidin-4-yl)amino)phenyl)acrylamide] the IC50 (MEK1 activated ERK1) was 101 to 500 nM.
C=CC(=O)Nc1cc(OC)ccc1Nc1nc(Nc2ccc(N(CC)C(C)=O)cc2C(F)(F)F)ncc1Cl [Compound I-176, N-(2-((5-chloro-2-((4-(N-ethylacetamido)-2-(trifluoromethyl)phenyl)amino)pyrimidin-4-yl)amino)-5-methoxyphenyl)acrylamide] was tested, and the IC50 (MEK1 activated ERK1) was 501 to 999 nM.
Work on C=CC(=O)Nc1ccccc1Nc1nc(Nc2ccc(N(CC)C(C)=O)cc2C(F)(F)F)ncc1Cl [Compound I-320] yielded an IC50 (MEK1 activated ERK1) of 501 to 999 nM.
For C=CC(=O)Nc1ccccc1Nc1nc(Nc2ccc(N3CCC[C@H]3C(N)=O)cc2C#N)ncc1Cl [Compound I-177, (S)-1-(4-((4-((2-acrylamidophenyl)amino)-5-chloropyrimidin-2-yl)amino)-3-cyanophenyl)pyrrolidine-2-carboxamide], the IC50 (MEK1 activated ERK1) was 101 to 500 nM.
C=CC(=O)Nc1ccccc1Nc1nc(N[C@H]2CC[C@@H](O)CC2)ncc1C(F)(F)F [Compound I-109, N-(2-((2-(cis-(4-hydroxycyclohexyl)amino)-5-(trifluoromethyl)pyrimidin-4-yl)amino)phenyl)acrylamide] showed an IC50 (MEK1 activated ERK1) of 501 to 999 nM.
In the case of C=CC(=O)N[C@@H]1CCCC[C@H]1Oc1nc(Nc2cc(C(N)=O)ccc2C)ncc1Cl (racemic) [Compound I-270, Rac-trans-3-((4-((2-acrylamidocyclohexyl)oxy)-5-chloropyrimidin-2-yl)amino)-4-methylbenzamide], the IC50 (MEK1 activated ERK1) is reported as > 1000 nM.
In the case of C=CC(=O)Nc1ccccc1Nc1nc(Nc2ccc(N(CCCNC(=O)OC(C)(C)C)C(C)=O)cc2OC)ncc1Cl [Compound I-173], the IC50 (MEK1 activated ERK1) is reported as 501 to 999 nM.
Compound C=CC(=O)Nc1ccccc1Nc1nc(Nc2ccc(N3CCN(C(=O)CCCC(=O)NCCCOCCOCCOCCCNC(=O)CCCC[C@@H]4SC[C@@H]5NC(=O)N[C@@H]54)CC3)cc2OC(F)F)ncc1Cl [Compound I-306, 5-(4-(4-((4-((2-acrylamidophenyl)amino)-5-chloropyrimidin-2-yl)amino)-3-(difluoromethoxy)phenyl)piperazin-1-yl)-5-oxo-N-(15-oxo-19-((3aS,4S,6aR)-2-oxohexahydro-1H-thieno[3,4-d]imidazol-4-yl)-4,7,10-trioxa-14-azanonadecyl)pentanamide] has an IC50 (MEK1 activated ERK1) of 101 to 500 nM.
For C=CC(=O)N[C@@H]1CCCC[C@H]1Nc1nc(Nc2cc(C(=O)NOCCO)ccc2C)ncc1C(N)=O (racemic) [Compound I-257, Rac-trans-4-((2-acrylamidocyclohexyl)amino)-2-((5-((2-hydroxyethoxy)carbamoyl)-2-methylphenyl)amino)pyrimidine-5-carboxamide], the IC50 (MEK1 activated ERK1) was > 1000 nM.
C=CC(=O)Nc1ccccc1Nc1nc(N[C@H]2CC[C@H](O)CC2)ncc1Cl [Compound I-101] showed an IC50 (MEK1 activated ERK1) of 101 to 500 nM.
C=CC(=O)Nc1ccccc1Nc1nc(N[C@H]2CCCN(C(=O)[C@@H](O)CO)C2)ncc1C(F)(F)F [Compound I-50, N-(2-((2-(((S)-1-((S)-2,3-Dihydroxypropanoyl)piperidin-3-yl)amino)-5-(trifluoromethyl)pyrimidin-4-yl)amino)phenyl)acrylamide] showed an IC50 (MEK1 activated ERK1) of 101 to 500 nM.
For C=CC(=O)Nc1cc(OC)ccc1Nc1nc(Nc2ccc(N3CCC[C@@H]3CO)cc2C#N)ncc1Cl [Compound I-181, (R)—N-(2-((5-chloro-2-((2-cyano-4-(2-(hydroxymethyl)pyrrolidin-1-yl)phenyl)amino)pyrimidin-4-yl)amino)-5-methoxyphenyl)acrylamide], the IC50 (MEK1 activated ERK1) was 501 to 999 nM.
Work on C=CC(=O)Nc1ccccc1Nc1nc(N[C@@H]2CCC[C@H](C(=O)NOC)C2)ncc1Cl (racemic) [Compound I-203, Rac-cis-3-((4-((2-acrylamidophenyl)amino)-5-chloropyrimidin-2-yl)amino)-N-methoxycyclohexanecarboxamide] yielded an IC50 (MEK1 activated ERK1) of 101 to 500 nM.
C=CC(=O)N[C@@H]1CCCC[C@H]1Oc1nc(Nc2cc(C(=O)NOC)ccc2C)ncc1C(N)=O (racemic) [Compound I-269, Rac-trans-4-((2-acrylamidocyclohexyl)oxy)-2-((5-(methoxycarbamoyl)-2-methylphenyl)amino)pyrimidine-5-carboxamide] was tested, and the IC50 (MEK1 activated ERK1) was > 1000 nM.
C=CC(=O)Nc1ccccc1Nc1nc(Nc2cc(C(=O)O)ccc2C)ncc1C(F)(F)F [Compound I-78, 3-((4-((2-Acrylamidophenyl)amino)-5-(trifluoromethyl)pyrimidin-2-yl)amino)-4-methylbenzoic acid] gave an IC50 (MEK1 activated ERK1) of 501 to 999 nM.
C=CC(=O)N(C)c1ccccc1Nc1nc(N[C@H]2CC[C@H](O)CC2)ncc1Cl [Compound I-104, N-(2-((5-chloro-2-(trans-(4-hydroxycyclohexyl)amino)pyrimidin-4-yl)amino)phenyl)-N-methylacrylamide] was tested, and the IC50 (MEK1 activated ERK1) was 501 to 999 nM.
